Laboratory results from PMC7717600, “Novel [(N-alkyl-3-indolylmethylene)hydrazono]oxindoles arrest cell cycle and induce cell apoptosis by inhibiting CDK2 and Bcl-2: synthesis, biological evaluation and in silico studies” (Journal of Enzyme Inhibition and Medicinal Chemistry, 2020).
Like-named read-outs stand apart in the source and are kept apart here.

Key:
Bcl-2 = Bcl-2 (Homo sapiens, UniProt P10415); test: Bcl-2 inhibitory activity; assay type: biochemical; details: Bcl-2, mean ± SE of three
Chain of Bcl-2 (P10415 whole entry): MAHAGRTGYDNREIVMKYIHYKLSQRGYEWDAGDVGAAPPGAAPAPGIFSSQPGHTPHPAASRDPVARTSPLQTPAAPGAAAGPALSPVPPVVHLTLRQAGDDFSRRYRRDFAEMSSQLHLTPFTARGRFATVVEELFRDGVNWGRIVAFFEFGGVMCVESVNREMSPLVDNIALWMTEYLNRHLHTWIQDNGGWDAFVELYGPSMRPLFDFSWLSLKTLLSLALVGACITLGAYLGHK
Experimental: These assays were carried out as reported earlier[38]^,[39].

CCRF-CEM = test: cells; details: Homo sapiens
K-562 = test: cells; details: Homo sapiens
SR = test: cells; details: Homo sapiens
A549/ATCC = test: cells; details: Homo sapiens
EKVX = test: cells; details: Homo sapiens
HOP-62 = test: cells; details: Homo sapiens
HOP-92 = test: cells; details: Homo sapiens
NCI-H226 = test: cells; details: Homo sapiens
NCI-H23 = test: cells; details: Homo sapiens
NCI-H522 = test: cells; details: Homo sapiens
HCT-116 = test: cells; details: Homo sapiens
HCT-15 = test: cells; details: Homo sapiens
HT29 = test: cells; details: Homo sapiens
KM12 = test: cells; details: Homo sapiens
SW-620 = test: cells; details: Homo sapiens
SF-268 = test: cells; details: Homo sapiens
SF-295 = test: cells; details: Homo sapiens
SNB-75 = test: cells; details: Homo sapiens
MALME-3M = test: cells; details: Homo sapiens
SK-MEL-28 = test: cells; details: Homo sapiens
SK-MEL-5 = test: cells; details: Homo sapiens
UACC-257 = test: cells; details: Homo sapiens
OVCAR-3 = test: cells; details: Homo sapiens
OVCAR-4 = test: cells; details: Homo sapiens
OVCAR-8 = test: cells; details: Homo sapiens
NCI/ADR-RES = test: cells; details: Homo sapiens
SK-OV-3 = test: cells; details: Homo sapiens, SK-OV-3, read-out: LC50
A498 = test: cells; details: Homo sapiens
RXF 393 = test: cells; details: Homo sapiens
BT-549 = test: cells; details: Homo sapiens
T-47D = test: cells; details: Homo sapiens, T47D
MDA-MB-468 = test: cells; details: Homo sapiens
[1] = tested on: panel of 59 human cancer cell lines; test: NCI screening, panel and subpanel summaries; details: for GI50: Homo sapiens
Experimental: GI50 values reflect the level for growth inhibitory effect, whereas TGI represents cytostatic impact. In addition, LC50 parameter is considered to be the cytotoxicity parameter for the examined hybrid.
Furthermore, dividing the full-panel MG-MID (µM) for the examined derivative by its individual subpanel MG-MID (µM) provides an index which is regarded as a measure for its selectivity.
The NCI-USA anticancer screening was carried out following the NCI, Bethesda, Drug Evaluation Branch protocol[22–24], utilising the SRB protein assay[21], as reported earlier[34]^,[35].
NCI-in vitro antitumor activity towards 59 cancer cell lines
The cytotoxicity assays were performed at National Cancer Institute (NCI), Bethesda, USA (against 59 cell lines). The human tumor cell lines of the cancer screening panel were grown in
screening experiment, cells were inoculated into 96 well microtiter plates in 100 µ at plating densities ranging from 5000 to 40,000 cells/well depending on the doubling time of individual
and 100% relative humidity for 24 h prior to addition of experimental drugs. After 24 h, two
plates of each cell line were fixed in situ with trichloroacetic acid (TCA), to represent a
measurement of the cell population for each cell line at the time of drug addition (Tz).
Experimental drugs were solubilized in dimethyl sulfoxide at 400-fold the desired final
maximum test concentration and stored frozen prior to use. At the time of drug addition, an
aliquot of frozen concentrate was thawed and diluted to twice the desired final maximum test
concentration with complete medium containing 50 µg/ml gentamicin. Additional four, 10-fold
or ½ log serial dilutions were made to provide a total of five drug concentrations plus control.
Aliquots of 100 µl of these different drug dilutions were added to the appropriate microtiter wells
already containing 100 µl of medium, resulting in the required final drug concentrations.
Triplicate wells were prepared for each individual dose. Following drug addition, the plates were

Compound: CCCn1cc(C=NN=C2C(=O)Nc3ccc(C)cc32)c2ccccc21 [Compound 8a]
- IC50 (Bcl-2): 0.46 ± 0.02 µM
- GI50 (CCRF-CEM): 1.94 µM
- CC50 (CCRF-CEM; read-out: LC50): > 100 µM
- GI50 (K-562; K562): 2.22 µM
- CC50 (K-562; K562, read-out: LC50): > 100 µM
- GI50 (SR): 0.521 µM
- CC50 (SR; read-out: LC50): > 100 µM
- GI50 (A549/ATCC; A549): 7.18 µM
- CC50 (A549/ATCC; A549, read-out: LC50): > 100 µM
- GI50 (EKVX): 2.36 µM
- CC50 (EKVX; read-out: LC50): > 100 µM
- GI50 (HOP-62; HOP-62): 4.17 µM
- CC50 (HOP-62; HOP-62, read-out: LC50): > 100 µM
- GI50 (HOP-92; HOP-92): 1.87 µM
- CC50 (HOP-92; HOP-92, read-out: LC50): > 100 µM
- GI50 (NCI-H226; NCI-H226): 2.95 µM
- CC50 (NCI-H226; NCI-H226, read-out: LC50): > 100 µM
- GI50 (NCI-H23; NCI-H23): 3.13 µM
- CC50 (NCI-H23; NCI-H23, read-out: LC50): > 100 µM
- GI50 (NCI-H522; NCI-H522): 1.81 µM
- CC50 (NCI-H522; NCI-H522, read-out: LC50): > 100 µM
- GI50 (HCT-116; HCT-116): 1.75 µM
- CC50 (HCT-116; HCT-116, read-out: LC50, HCT-116): 19 µM
- GI50 (HCT-15; HCT-15): 2.63 µM
- CC50 (HCT-15; HCT-15, read-out: LC50): > 100 µM
- GI50 (HT29; HT-29): 3.4 µM
- CC50 (HT29; HT-29, read-out: LC50): > 100 µM
- GI50 (KM12; KM12): 3.22 µM
- CC50 (KM12; KM12, read-out: LC50): > 100 µM
- GI50 (SW-620; SW-620): 2.97 µM
- CC50 (SW-620; SW-620, read-out: LC50): > 100 µM
- GI50 (SF-268; SF-268): 3.33 µM
- CC50 (SF-268; SF-268, read-out: LC50): > 100 µM
- GI50 (SF-295; SF-295): 8.41 µM
- CC50 (SF-295; SF-295, read-out: LC50): > 100 µM
- GI50 (SNB-75; SNB-75): 2.31 µM
- CC50 (SNB-75; SNB-75, read-out: LC50): > 100 µM
- GI50 (MALME-3M): 1.88 µM
- CC50 (MALME-3M; read-out: LC50): > 100 µM
- GI50 (SK-MEL-28; SK-MEL-28): 4.7 µM
- CC50 (SK-MEL-28; SK-MEL-28, read-out: LC50): > 100 µM
- GI50 (SK-MEL-5; SK-MEL-5): 2.86 µM
- CC50 (SK-MEL-5; SK-MEL-5, read-out: LC50, SK-MEL-5): 47.4 µM
- GI50 (UACC-257; UACC-257): 12.3 µM
- CC50 (UACC-257; UACC-257, read-out: LC50): > 100 µM
- GI50 (OVCAR-3; OVCAR-3): 1.36 µM
- CC50 (OVCAR-3; OVCAR-3, read-out: LC50): > 100 µM
- GI50 (OVCAR-4; OVCAR-4, OVCAR-4): 0.935 µM
- CC50 (OVCAR-4; OVCAR-4, read-out: LC50): > 100 µM
- GI50 (OVCAR-8; OVCAR-8): 5.41 µM
- CC50 (OVCAR-8; OVCAR-8, read-out: LC50): > 100 µM
- GI50 (NCI/ADR-RES): 6.39 µM
- CC50 (NCI/ADR-RES; read-out: LC50): > 100 µM
- CC50 (SK-OV-3): > 100 µM
- GI50 (A498; A498): 1.37 µM
- CC50 (A498; A498, read-out: LC50): > 100 µM
- GI50 (RXF 393; RXF 393): 2.17 µM
- CC50 (RXF 393; RXF 393, read-out: LC50): > 100 µM
- GI50 (BT-549; BT-549): 1.79 µM
- CC50 (BT-549; BT-549, read-out: LC50): > 100 µM
- GI50 (T-47D; T-47D): 0.416 µM
- CC50 (T-47D; read-out: LC50): > 100 µM
- GI50 (MDA-MB-468; MDA-MB-468): 1.69 µM
- CC50 (MDA-MB-468; MDA-MB-468, read-out: LC50): 79.4 µM
- mean GI % ([1]; 10 µM single dose, all cell lines): 59%
- Mean Growth Percent ([1]; 1.00E-5 Molar, one dose mean graph): 41.08%
- Selectivity index ([1]; Breast Cancer subpanel): 1.00
- Selectivity index ([1]; CNS Cancer subpanel): 0.75
- Selectivity index ([1]; Colon Cancer subpanel): 1.25
- GI50 ([1]; read-out: Full panel MG-MID (GI50), five-dose): 3.1 µM
- GI50 ([1]; read-out: GI50 values range, five-dose, across cell lines except UACC-257, TK-10, HS 578 T): 1.17 to 8.41 µM
- GI50 ([1]; read-out: MG-MID (GI50), Breast Cancer subpanel): 3.09 µM
- GI50 ([1]; read-out: MG-MID (GI50), CNS Cancer subpanel): 4.08 µM
- GI50 ([1]; read-out: MG-MID (GI50), Colon Cancer subpanel): 2.47 µM
- GI50 ([1]; read-out: MG-MID (GI50), Leukaemia subpanel): 1.33 µM
- GI50 ([1]; read-out: MG-MID (GI50), Melanoma subpanel): 3.45 µM
- GI50 ([1]; read-out: MG-MID (GI50), NSCL Cancer subpanel): 3.22 µM
- GI50 ([1]; read-out: MG-MID (GI50), Ovarian Cancer subpanel): 3.24 µM
- GI50 ([1]; read-out: MG-MID (GI50), Prostate Cancer subpanel): 2.85 µM
- GI50 ([1]; read-out: MG-MID (GI50), Renal Cancer subpanel): 4.23 µM
- GI50 ([1]; read-out: sub-panel GI50 (MG-MID) range, five-dose): 1.33 to 4.23 µM
- Selectivity index ([1]; Leukaemia subpanel): 2.33
- Selectivity index ([1]; Melanoma subpanel): 0.89
- Selectivity index ([1]; NSCL Cancer subpanel): 0.96
- Selectivity index ([1]; Ovarian Cancer subpanel): 0.95
- Selectivity index ([1]; Prostate Cancer subpanel): 1.08
- Selectivity index ([1]; Renal Cancer subpanel): 0.73
- Log10GI50 _MID ([1]; five-dose mean graph): -5.59 Molar
- Log10LC50 _MID ([1]; five-dose mean graph): -4.12 Molar
- Log10TGI _MID ([1]; five-dose mean graph): -4.69 Molar
- TGI range ([1]; five-dose, against 22 cancer cell lines): 2.96 to 8.03 µM
- TGI interval ([1]; five-dose, remaining cancer cell lines): 10.6 to 96.6 µM
- selectivity ratios range ([1]; full-panel MG-MID / subpanel MG-MID): 0.73 to 2.33
